Laboratory results from ChEMBL document CHEMBL1201861, “Genomics of Drug Sensitity in Cancer screening data, Wellcome Trust Sanger Institute”.

Legend:
Experiment in all cases: cells
Conditions in all cases: Homo sapiens
CP66-MEL = format: functional, cell-based;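 further: growth inhibition of CP66-MEL cells determined in a cell viability assay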
Description: SANGER: Inhibition of human CP66-MEL cell growth in a cell viability assay.

CW-2 = format: functional, cell-based;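 further: growth inhibition of CW-2 cells, read out by a cell viability assay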
Description: SANGER: Inhibition of human CW-2 cell growth in a cell viability assay.

Calu-6 = format: functional, cell-based;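 further: growth of human Calu-6 cells, read out by a cell viability assay, IC50 marking inhibition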
Description: SANGER: Inhibition of human Calu-6 cell growth in a cell viability assay.

D283 Med = format: functional, cell-based
Description: SANGER: Inhibition of human D-283MED cell growth in a cell viability assay.

D-502MG = format: functional, cell-based
Description: SANGER: Inhibition of human D-502MG cell growth in a cell viability assay.

DB = format: functional, cell-based
Description: SANGER: Inhibition of human DB cell growth in a cell viability assay.

DEL = format: functional, cell-based;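 further: growth inhibition of the human DEL cell line, read out with a cell viability assay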
Description: SANGER: Inhibition of human DEL cell growth in a cell viability assay.

DOHH-2 = format: functional, cell-based;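 further: growth inhibition of human DOHH-2 cells, read out with a cell viability assay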
Description: SANGER: Inhibition of human DOHH-2 cell growth in a cell viability assay.

ES3 = format: functional, cell-based;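 further: growth inhibition of ES3 cells, read out with a cell viability assay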
Description: SANGER: Inhibition of human ES3 cell growth in a cell viability assay.

ES5 = format: functional, cell-based;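 further: growth inhibition of human ES5 cells, read out by a cell viability assay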
Description: SANGER: Inhibition of human ES5 cell growth in a cell viability assay.

ES8 = format: functional, cell-based;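 further: growth inhibition of human ES8 cells, read out with a cell viability assay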
Description: SANGER: Inhibition of human ES8 cell growth in a cell viability assay.

EW-1 = format: functional, cell-based;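 further: growth inhibition of the human EW-1 cell line, read out by a cell viability assay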
Description: SANGER: Inhibition of human EW-1 cell growth in a cell viability assay.

GAK = format: functional, cell-based;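 further: cell growth inhibition read out by a cell viability assay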
Description: SANGER: Inhibition of human GAK cell growth in a cell viability assay.

GI-ME-N = format: functional, cell-based;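 further: growth inhibition of human GI-ME-N cells, read out with a cell viability assay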
Description: SANGER: Inhibition of human GI-ME-N cell growth in a cell viability assay.

GT3TKB = format: functional, cell-based;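 further: growth inhibition of the cell line, read out with a cell viability assay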
Description: SANGER: Inhibition of human GT3TKB cell growth in a cell viability assay.

HH = format: functional, cell-based
Description: SANGER: Inhibition of human HH cell growth in a cell viability assay.

HL-60 = format: functional, cell-based;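 further: growth inhibition of human HL-60 cells, read out with a cell viability assay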
Description: SANGER: Inhibition of human HL-60 cell growth in a cell viability assay.

HT-144 = format: functional, cell-based
Description: SANGER: Inhibition of human HT-144 cell growth in a cell viability assay.

HuTu80 = format: functional, cell-based, HUTU-80;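 further: growth inhibition of HuTu80 human cells, determined with a cell viability readout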
Description: SANGER: Inhibition of human HUTU-80 cell growth in a cell viability assay.

IA-LM = format: functional, cell-based;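 further: cell viability assay measuring growth inhibition of human IA-LM cells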
Description: SANGER: Inhibition of human IA-LM cell growth in a cell viability assay.

IST-MES1 = format: functional, cell-based;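 further: growth inhibition of IST-MES1 cells, measured with a cell viability assay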
Description: SANGER: Inhibition of human IST-MES1 cell growth in a cell viability assay.

J-RT3-T3-5 = format: functional, cell-based;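 further: cell viability assay measuring growth inhibition of human J-RT3-T3-5 cells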
Description: SANGER: Inhibition of human J-RT3-T3-5 cell growth in a cell viability assay.

JAR = format: functional, cell-based;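 further: growth inhibition of human JAR cells determined with a cell viability assay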
Description: SANGER: Inhibition of human JAR cell growth in a cell viability assay.

K5 = format: functional, cell-based
Description: SANGER: Inhibition of human K5 cell growth in a cell viability assay.

KALS-1 = format: functional, cell-based;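 further: growth inhibition of KALS-1 cells, determined with a cell viability assay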
Description: SANGER: Inhibition of human KALS-1 cell growth in a cell viability assay.

KARPAS-299 = format: functional, cell-based
Description: SANGER: Inhibition of human KARPAS-299 cell growth in a cell viability assay.

KM12 = format: functional, cell-based;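 further: KM12 cell growth inhibition, read out with a cell viability assay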
Description: SANGER: Inhibition of human KM12 cell growth in a cell viability assay.

L-363 = format: functional, cell-based
Description: SANGER: Inhibition of human L-363 cell growth in a cell viability assay.

LAN-6 = format: functional, cell-based;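 further: growth inhibition of LAN-6 cells, determined with a cell viability assay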
Description: SANGER: Inhibition of human LAN-6 cell growth in a cell viability assay.

LB2518-MEL = format: functional, cell-based;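 further: growth inhibition of human LB2518-MEL cells, measured with a cell viability assay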
Description: SANGER: Inhibition of human LB2518-MEL cell growth in a cell viability assay.

LC-2-ad = format: functional, cell-based;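 further: growth inhibition of human LC-2-ad cells, read out with a cell viability assay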
Description: SANGER: Inhibition of human LC-2-ad cell growth in a cell viability assay.

LOX IMVI = format: functional, cell-based
Description: SANGER: Inhibition of human LOXIMVI cell growth in a cell viability assay.

LU-134-A = format: functional, cell-based
Description: SANGER: Inhibition of human LU-134-A cell growth in a cell viability assay.

MEG-01 = format: functional, cell-based;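 further: growth inhibition of MEG-01 cells, read out by a cell viability assay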
Description: SANGER: Inhibition of human MEG-01 cell growth in a cell viability assay.

MHH-PREB-1 = format: functional, cell-based;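 further: cell viability assay measuring inhibition of proliferation of human MHH-PREB-1 cells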
Description: SANGER: Inhibition of human MHH-PREB-1 cell growth in a cell viability assay.

MLMA = format: functional, cell-based;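 further: growth inhibition of MLMA cells (human), determined through a cell viability readout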
Description: SANGER: Inhibition of human MLMA cell growth in a cell viability assay.

MOLT-4 = format: functional, cell-based;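 further: growth inhibition of MOLT-4 cells, determined with a cell viability readout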
Description: SANGER: Inhibition of human MOLT-4 cell growth in a cell viability assay.

MV4-11 = format: functional, cell-based, MV-4-11;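 further: cell viability readout measuring growth inhibition of human MV-4-11 cells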
Description: SANGER: Inhibition of human MV-4-11 cell growth in a cell viability assay.

MZ7-mel = format: functional, cell-based;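 further: growth inhibition of human MZ7-mel cells, measured by a cell viability assay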
Description: SANGER: Inhibition of human MZ7-mel cell growth in a cell viability assay.

NCI-H1581 = format: functional, cell-based;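 further: cell growth inhibition read out by a viability assay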
Description: SANGER: Inhibition of human NCI-H1581 cell growth in a cell viability assay.

NCI-H1770 = format: functional, cell-based;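 further: growth inhibition of NCI-H1770 cells determined with a viability readout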
Description: SANGER: Inhibition of human NCI-H1770 cell growth in a cell viability assay.

SNU1 = format: functional, cell-based;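 further: growth inhibition of human NCI-SNU-1 cells, measured with a cell viability assay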
Description: SANGER: Inhibition of human NCI-SNU-1 cell growth in a cell viability assay.

NMC-G1 = format: functional, cell-based;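 further: growth inhibition of the NMC-G1 cell line, measured with a cell viability read-out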
Description: SANGER: Inhibition of human NMC-G1 cell growth in a cell viability assay.

NTERA-2-cl-D1 = format: functional, cell-based;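 further: inhibition of cell growth, measured with a cell viability assay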
Description: SANGER: Inhibition of human NTERA-S-cl-D1 cell growth in a cell viability assay.

OCUB-M = format: functional, cell-based;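 further: growth inhibition of the cancer cell line, read out through a cell viability assay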
Description: SANGER: Inhibition of human OCUB-M cell growth in a cell viability assay.

ONS-76 = format: functional, cell-based;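 further: growth inhibition of human ONS-76 cells, read out with a cell viability assay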
Description: SANGER: Inhibition of human ONS-76 cell growth in a cell viability assay.

OVCAR-4 = format: functional, cell-based;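 further: growth inhibition of human OVCAR-4 cells, measured with a cell viability assay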
Description: SANGER: Inhibition of human OVCAR-4 cell growth in a cell viability assay.

QIMR-WIL = format: functional, cell-based;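 further: growth inhibition of QIMR-WIL cells, read out with a cell viability assay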
Description: SANGER: Inhibition of human QIMR-WIL cell growth in a cell viability assay.

RPMI-8866 = format: functional, cell-based
Description: SANGER: Inhibition of human RPMI-8866 cell growth in a cell viability assay.

RXF 393 = format: functional, cell-based;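 further: growth inhibition of human RXF 393 cells, read out with a cell viability assay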
Description: SANGER: Inhibition of human RXF393 cell growth in a cell viability assay.

SHP77 = format: functional, cell-based, SHP-77;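 further: growth inhibition of human SHP-77 cells measured by a cell viability assay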
Description: SANGER: Inhibition of human SHP-77 cell growth in a cell viability assay.

SK-N-FI = format: functional, cell-based;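 further: cell viability assay measuring growth inhibition of human SK-N-FI cells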
Description: SANGER: Inhibition of human SK-N-FI cell growth in a cell viability assay.

SK-PN-DW = format: functional, cell-based;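 further: growth inhibition measured with a viability assay on these cells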
Description: SANGER: Inhibition of human SK-PN-DW cell growth in a cell viability assay.

SW 962 = format: functional, cell-based;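 further: growth inhibition of human SW962 cells, read out by a cell viability assay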
Description: SANGER: Inhibition of human SW962 cell growth in a cell viability assay.

A3-KAW = format: functional, cell-based;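 further: growth inhibition of human A3-KAW cells, read out with a cell viability assay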
Description: SANGER: Inhibition of human A3-KAW cell growth in a cell viability assay.

A4-Fuk = format: functional, cell-based;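 further: growth inhibition of A4-Fuk cells, read out by a cell viability assay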
Description: SANGER: Inhibition of human A4-Fuk cell growth in a cell viability assay.

A704 = format: functional, cell-based;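 further: growth inhibition of human A704 cells, read out with a cell viability assay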
Description: SANGER: Inhibition of human A704 cell growth in a cell viability assay.

TE-10 = format: functional, cell-based;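 further: growth inhibition of TE-10 cells, measured by a cell viability assay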
Description: SANGER: Inhibition of human TE-10 cell growth in a cell viability assay.

TE-11 = format: functional, cell-based;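 further: growth inhibition of human TE-11 cells, read out by a cell viability assay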
Description: SANGER: Inhibition of human TE-11 cell growth in a cell viability assay.

UACC-257 = format: functional, cell-based
Description: SANGER: Inhibition of human UACC-257 cell growth in a cell viability assay.

COR-L88 = format: functional, cell-based
Description: SANGER: Inhibition of human COR-L88 cell growth in a cell viability assay.

JVM-2 = format: functional, cell-based
Description: SANGER: Inhibition of human JVM-2 cell growth in a cell viability assay.

KARPAS-45 = format: functional, cell-based
Description: SANGER: Inhibition of human KARPAS-45 cell growth in a cell viability assay.

Lu-65 = format: functional, cell-based
Description: SANGER: Inhibition of human LU-65 cell growth in a cell viability assay.

SBC-1 = format: functional, cell-based
Description: SANGER: Inhibition of human SBC-1 cell growth in a cell viability assay.

O=c1cc(N2CCOCC2)oc2c(-c3cccc4c3sc3ccccc34)cccc12
IC50 (CP66-MEL): > 2000 nM
IC50 (CW-2): > 2000 nM
IC50 (Calu-6): > 2000 nM
IC50 (D283 Med): > 2000 nM
IC50 (D-502MG): > 2000 nM
IC50 (DB): > 2000 nM
IC50 (DEL): > 2000 nM
IC50 (DOHH-2): > 2000 nM
IC50 (ES3): > 2000 nM
IC50 (ES5): > 2000 nM
IC50 (ES8): > 2000 nM
IC50 (EW-1): > 2000 nM
IC50 (GAK): > 2000 nM
IC50 (GI-ME-N): > 2000 nM
IC50 (GT3TKB): > 2000 nM
IC50 (HH): 1180 nM
IC50 (HL-60): 1380 nM
IC50 (HT-144): > 2000 nM
IC50 (HuTu80): > 2000 nM
IC50 (IA-LM): > 2000 nM
IC50 (IST-MES1): > 2000 nM
IC50 (J-RT3-T3-5): > 2000 nM
IC50 (JAR): > 2000 nM
IC50 (K5): > 2000 nM
IC50 (KALS-1): > 2000 nM
IC50 (KARPAS-299): > 2000 nM
IC50 (KM12): > 2000 nM
IC50 (L-363): > 2000 nM
IC50 (LAN-6): > 2000 nM
IC50 (LB2518-MEL): > 2000 nM
IC50 (LC-2-ad): > 2000 nM
IC50 (LOX IMVI): > 2000 nM
IC50 (LU-134-A): > 2000 nM
IC50 (MEG-01): > 2000 nM
IC50 (MHH-PREB-1): > 2000 nM
IC50 (MLMA): > 2000 nM
IC50 (MOLT-4): > 2000 nM
IC50 (MV4-11): > 2000 nM
IC50 (MZ7-mel): > 2000 nM
IC50 (NCI-H1581): > 2000 nM
IC50 (NCI-H1770): 21.4 nM
IC50 (SNU1): 610 nM
IC50 (NMC-G1): > 2000 nM
IC50 (NTERA-2-cl-D1): > 2000 nM
IC50 (OCUB-M): > 2000 nM
IC50 (ONS-76): > 2000 nM
IC50 (OVCAR-4): > 2000 nM
IC50 (QIMR-WIL): > 2000 nM
IC50 (RPMI-8866): > 2000 nM
IC50 (RXF 393): > 2000 nM
IC50 (SHP77): > 2000 nM
IC50 (SK-N-FI): > 2000 nM
IC50 (SK-PN-DW): > 2000 nM
IC50 (SW 962): > 2000 nM
IC50 (A3-KAW): > 2000 nM
IC50 (A4-Fuk): > 2000 nM
IC50 (A704): > 2000 nM
IC50 (TE-10): > 2000 nM
IC50 (TE-11): > 2000 nM
IC50 (UACC-257): > 2000 nM

CCCS(=O)(=O)Nc1ccc(F)c(C(=O)c2c[nH]c3ncc(Cl)cc23)c1F [PLX-4720]
IC50 (COR-L88): > 10000 nM
IC50 (CP66-MEL): 4160 nM
IC50 (CW-2): > 10000 nM
IC50 (Calu-6): > 10000 nM
IC50 (D283 Med): > 10000 nM
IC50 (D-502MG): > 10000 nM
IC50 (DB): > 10000 nM
IC50 (DEL): > 10000 nM
IC50 (DOHH-2): > 10000 nM
IC50 (ES3): > 10000 nM
IC50 (ES5): 6150 nM
IC50 (ES8): > 10000 nM
IC50 (EW-1): > 10000 nM
IC50 (GAK): > 10000 nM
IC50 (GI-ME-N): > 10000 nM
IC50 (GT3TKB): > 10000 nM
IC50 (HH): > 10000 nM
IC50 (HL-60): > 10000 nM
IC50 (HT-144): 363 nM
IC50 (HuTu80): > 10000 nM
IC50 (IA-LM): > 10000 nM
IC50 (IST-MES1): > 10000 nM
IC50 (J-RT3-T3-5): > 10000 nM
IC50 (JAR): > 10000 nM
IC50 (JVM-2): > 10000 nM
IC50 (K5): 761 nM
IC50 (KALS-1): > 10000 nM
IC50 (KARPAS-299): > 10000 nM
IC50 (KARPAS-45): 2050 nM
IC50 (KM12): > 10000 nM
IC50 (L-363): > 10000 nM
IC50 (LAN-6): > 10000 nM
IC50 (LB2518-MEL): > 10000 nM
IC50 (LC-2-ad): > 10000 nM
IC50 (LOX IMVI): > 10000 nM
IC50 (LU-134-A): > 10000 nM
IC50 (Lu-65): > 10000 nM
IC50 (MEG-01): > 10000 nM
IC50 (MHH-PREB-1): > 10000 nM
IC50 (MLMA): > 10000 nM
IC50 (MOLT-4): > 10000 nM
IC50 (MV4-11): > 10000 nM
IC50 (MZ7-mel): 1150 nM
IC50 (NCI-H1581): > 10000 nM
IC50 (NCI-H1770): > 10000 nM
IC50 (SNU1): > 10000 nM
IC50 (NMC-G1): > 10000 nM
IC50 (NTERA-2-cl-D1): > 10000 nM
IC50 (OCUB-M): > 10000 nM
IC50 (ONS-76): > 10000 nM
IC50 (OVCAR-4): > 10000 nM
IC50 (QIMR-WIL): > 10000 nM
IC50 (RPMI-8866): > 10000 nM
IC50 (RXF 393): > 10000 nM
IC50 (SBC-1): > 10000 nM
IC50 (SHP77): > 10000 nM
IC50 (SK-N-FI): > 10000 nM
IC50 (SK-PN-DW): > 10000 nM
IC50 (SW 962): > 10000 nM
IC50 (A3-KAW): > 10000 nM
IC50 (A4-Fuk): > 10000 nM
IC50 (A704): > 10000 nM
IC50 (TE-10): > 10000 nM
IC50 (TE-11): > 10000 nM
IC50 (UACC-257): > 10000 nM
